Reference: ChEMBL document CHEMBL1131884, “Dicationic 2-fluorenonylcarbapenems: potent anti-MRS agents with improved solubility and pharmacokinetic properties” (Bioorg Med Chem Lett, 1999)

Legend:
MecA = target: T1, MecA (Staphylococcus aureus, UniProt Q7DHH4); experiment: Binding affinity against PBP2a receptor by competition analysis with [3H]benzylpenicillin using cell membrane fractions from the MRSA COL strain.
T1 sequence (Q7DHH4 whole entry): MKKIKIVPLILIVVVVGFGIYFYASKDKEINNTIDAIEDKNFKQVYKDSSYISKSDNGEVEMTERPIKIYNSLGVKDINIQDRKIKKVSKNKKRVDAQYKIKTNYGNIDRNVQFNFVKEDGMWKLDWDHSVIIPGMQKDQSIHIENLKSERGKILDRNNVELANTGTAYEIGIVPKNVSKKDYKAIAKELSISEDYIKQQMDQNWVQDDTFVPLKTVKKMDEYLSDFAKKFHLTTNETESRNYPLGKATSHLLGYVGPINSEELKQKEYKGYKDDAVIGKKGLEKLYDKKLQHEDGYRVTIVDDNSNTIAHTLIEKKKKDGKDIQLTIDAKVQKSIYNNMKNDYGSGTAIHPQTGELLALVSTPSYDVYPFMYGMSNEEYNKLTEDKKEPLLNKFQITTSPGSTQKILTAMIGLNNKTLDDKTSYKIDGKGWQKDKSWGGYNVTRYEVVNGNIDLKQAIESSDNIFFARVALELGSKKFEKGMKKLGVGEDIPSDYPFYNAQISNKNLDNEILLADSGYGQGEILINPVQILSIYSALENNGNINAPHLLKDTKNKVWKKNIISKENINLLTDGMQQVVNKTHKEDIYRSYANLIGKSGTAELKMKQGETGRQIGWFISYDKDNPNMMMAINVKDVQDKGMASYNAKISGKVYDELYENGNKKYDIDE

Staphylococcus sp. = experiment: Antibacterial activity against methicillin-resistant coagulase negative Staphylococci (MRCNS); assay type: functional
Staphylococcus aureus = experiment: Antibacterial activity against methicillin-resistant Staphylococcus aureus (MRSA); assay type: functional

SMILES	IC50 (MecA) [µM]	MIC50 (Staphylococcus sp.) [µg/mL]	MIC90 (Staphylococcus sp.) [µg/mL]	MIC50 (Staphylococcus aureus) [µg/mL]	MIC90 (Staphylococcus aureus) [µg/mL]
C[C@@H](O)[C@H]1C(=O)N2C(C(=O)O)=C(c3ccc4c(c3)-c3ccc(C[N+]56CC[N+](CC(=O)NC(C)(C)C)(CC5)CC6)cc3C4=O)[C@H](C)[C@H]12.[Cl-].[Cl-]	3.43	4	8	2	4
C[C@@H](O)[C@H]1C(=O)N2C(C(=O)O)=C(c3ccc4c(c3)-c3ccc(C[N+]56CC[N+](CC(=O)NC7CCCC7)(CC5)CC6)cc3C4=O)[C@H](C)[C@H]12.[Cl-].[Cl-]	1.41	4	8	2	4
C[C@@H](O)[C@H]1C(=O)N2C(C(=O)O)=C(c3ccc4c(c3)-c3ccc(C[N+]56CC[N+](CC(=O)Nc7ccccc7)(CC5)CC6)cc3C4=O)C[C@H]12.[Cl-].[Cl-]	0.468	1	1	0.5	2
CC(=O)c1ccc(NC(=O)C[N+]23CC[N+](Cc4ccc5c(c4)C(=O)c4ccc(C6=C(C(=O)O)N7C(=O)[C@H]([C@@H](C)O)[C@H]7[C@H]6C)cc4-5)(CC2)CC3)cc1.[Cl-].[Cl-]	3.15	1	4	0.5	1
C[C@@H](O)[C@H]1C(=O)N2C(C(=O)O)=C(c3ccc4c(c3)-c3ccc(C[N+]56CC[N+](CC(=O)Nc7ccccc7C(N)=O)(CC5)CC6)cc3C4=O)[C@H](C)[C@H]12.[Cl-].[Cl-]	1.02	2	8	2	4
C[C@@H](O)[C@H]1C(=O)N2C(C(=O)O)=C(c3ccc4c(c3)-c3ccc(C[N+]56CC[N+](CC(=O)Nc7cccc(C#N)c7)(CC5)CC6)cc3C4=O)[C@H](C)[C@H]12.[Cl-].[Cl-]	0.752	1	2	0.5	1
C[C@@H](O)[C@H]1C(=O)N2C(C(=O)O)=C(c3ccc4c(c3)-c3ccc(C[N+]56CC[N+](CC(=O)Nc7ccc(CO)cc7)(CC5)CC6)cc3C4=O)[C@H](C)[C@H]12.[Cl-].[Cl-]	2.67	1	4	1	2
CC(=O)c1cccc(NC(=O)C[N+]23CC[N+](Cc4ccc5c(c4)C(=O)c4ccc(C6=C(C(=O)O)N7C(=O)[C@H]([C@@H](C)O)[C@H]7[C@H]6C)cc4-5)(CC2)CC3)c1.[Cl-].[Cl-]	1.29	1	4	1	2
C[C@@H](O)[C@H]1C(=O)N2C(C(=O)O)=C(c3ccc4c(c3)-c3ccc(C[N+]56CC[N+](CC(=O)N(C)C)(CC5)CC6)cc3C4=O)[C@H](C)[C@H]12.[Cl-].[Cl-]	0.581	4	16	4	8
C[C@@H](O)[C@H]1C(=O)N2C(C(=O)O)=C(c3ccc4c(c3)-c3ccc(C[N+]56CC[N+](CC#N)(CC5)CC6)cc3C4=O)[C@H](C)[C@H]12.[Cl-].[Cl-]	0.464	4	8	2	4
CNC(=O)C[N+]12CC[N+](Cc3ccc4c(c3)C(=O)c3ccc(C5=C(C(=O)O)N6C(=O)[C@H]([C@@H](C)O)[C@H]6[C@H]5C)cc3-4)(CC1)CC2.[Cl-].[Cl-]	0.502	4	8	4	8
C[C@@H](O)[C@H]1C(=O)N2C(C(=O)O)=C(c3ccc4c(c3)-c3ccc(C[N+]56CC[N+](CC(=O)Nc7ccccc7)(CC5)CC6)cc3C4=O)[C@H](C)[C@H]12.[Cl-].[Cl-]	1.78	2	4	2	2
CC(C)NC(=O)C[N+]12CC[N+](Cc3ccc4c(c3)C(=O)c3ccc(C5=C(C(=O)O)N6C(=O)[C@H]([C@@H](C)O)[C@H]6[C@H]5C)cc3-4)(CC1)CC2.[Cl-].[Cl-]	1.24	4	8	2	4
C[C@@H](O)[C@H]1C(=O)N2C(C(=O)O)=C(c3ccc4c(c3)-c3ccc(C[N+]56CC[N+](CCOc7ccccc7)(CC5)CC6)cc3C4=O)[C@H](C)[C@H]12.[Cl-].[Cl-]	0.566	2	4	1	2
C[C@@H](O)[C@H]1C(=O)N2C(C(=O)O)=C(c3ccc4c(c3)-c3ccc(C[N+]56CC[N+](CCO)(CC5)CC6)cc3C4=O)C[C@H]12.[Cl-].[Cl-]	0.276	2	4	2	4
C[C@@H](O)[C@H]1C(=O)N2C(C(=O)O)=C(c3ccc4c(c3)-c3ccc(C[N+]56CC[N+](CC(=O)Nc7ccc(C(N)=O)cc7)(CC5)CC6)cc3C4=O)[C@H](C)[C@H]12.[Cl-].[Cl-]	1.97	0.5	2	0.25	0.5
C[C@@H](O)[C@H]1C(=O)N2C(C(=O)O)=C(c3ccc4c(c3)-c3ccc(C[N+]56CC[N+](CC(=O)Nc7ccccc7C#N)(CC5)CC6)cc3C4=O)[C@H](C)[C@H]12.[Cl-].[Cl-]	1.1	2	4	1	2
C[C@@H](O)[C@H]1C(=O)N2C(C(=O)O)=C(c3ccc4c(c3)-c3ccc(C[N+]56CC[N+](CC(=O)Nc7ccncc7)(CC5)CC6)cc3C4=O)[C@H](C)[C@H]12.[Cl-].[Cl-]	1.19	2	4	1	2
COc1ccc(NC(=O)C[N+]23CC[N+](Cc4ccc5c(c4)C(=O)c4ccc(C6=C(C(=O)O)N7C(=O)[C@H]([C@@H](C)O)[C@H]7[C@H]6C)cc4-5)(CC2)CC3)cc1.[Cl-].[Cl-]	1.19	1	4	1	1
C[C@@H](O)[C@H]1C(=O)N2C(C(=O)O)=C(c3ccc4c(c3)-c3ccc(C[N+]56CC[N+](CCCC(N)=O)(CC5)CC6)cc3C4=O)[C@H](C)[C@H]12.[Cl-].[Cl-]	2.98	4	8	4	4
C[C@@H](O)[C@H]1C(=O)N2C(C(=O)O)=C(c3ccc4c(c3)-c3ccc(C[N+]56CC[N+](CC(=O)Nc7nccs7)(CC5)CC6)cc3C4=O)[C@H](C)[C@H]12.[Cl-].[Cl-]	0.853	4	8	2	4
C[C@@H](O)[C@H]1C(=O)N2C(C(=O)O)=C(c3ccc4c(c3)-c3ccc(C[N+]56CC[N+](CCCO)(CC5)CC6)cc3C4=O)C[C@H]12.[Cl-].[Cl-]	1.27	4	4	2	8
CCC[N+]12CC[N+](Cc3ccc4c(c3)C(=O)c3ccc(C5=C(C(=O)O)N6C(=O)[C@H]([C@@H](C)O)[C@H]6[C@H]5C)cc3-4)(CC1)CC2.[Cl-].[Cl-]	0.907	4	8	4	4
CCCNC(=O)C[N+]12CC[N+](Cc3ccc4c(c3)C(=O)c3ccc(C5=C(C(=O)O)N6C(=O)[C@H]([C@@H](C)O)[C@H]6[C@H]5C)cc3-4)(CC1)CC2.[Cl-].[Cl-]	1.23	4	8	2	4
COc1ccccc1NC(=O)C[N+]12CC[N+](Cc3ccc4c(c3)C(=O)c3ccc(C5=C(C(=O)O)N6C(=O)[C@H]([C@@H](C)O)[C@H]6[C@H]5C)cc3-4)(CC1)CC2.[Cl-].[Cl-]	0.867	2	4	1	2
C[C@@H](O)[C@H]1C(=O)N2C(C(=O)O)=C(c3ccc4c(c3)-c3ccc(C[N+]56CC[N+](C)(CC5)CC6)cc3C4=O)C[C@H]12.[Cl-].[Cl-]	0.307	2	4	2	8
C[C@@H](O)[C@H]1C(=O)N2C(C(=O)O)=C(c3ccc4c(c3)-c3ccc(C[N+]56CC[N+](CC(=O)Nc7ccccn7)(CC5)CC6)cc3C4=O)[C@H](C)[C@H]12.[Cl-].[Cl-]	0.43	2	8	2	4
CCC[N+]12CC[N+](Cc3ccc4c(c3)C(=O)c3ccc(C5=C(C(=O)O)N6C(=O)[C@H]([C@@H](C)O)[C@H]6C5)cc3-4)(CC1)CC2.[Cl-].[Cl-]	0.456	2	4	2	4
